According to patent publication US6737407B1, “Treatment of obesity” (Metabolic Pharmaceuticals, Ltd., priority 1997, dated 2004):
Bridges are numbered along the chain shown (N, C = ends). Where no end group is shown, it is not given here. [ ]: non-standard residue; d: D form. The star is where a group is joined. Pen = CC(C)(S)[C@H](N)C(=O)O; Acm = CC(=O)NC*

System: adipose tissues from male Zucker fatty (fa/fa) rats
Assay: In vitro inhibition of lipogenesis in isolated adipose tissue
Assay type: cell-based, rat
Conditions: for In vitro lipogenesis % of control / In vitro lipogenesis Activity / In vitro lipogenesis, rate of [C14]-glucose incorporation into [C14]-lipid: peptide 0.3 μM, insulin 0.1 mU/ml; for In vitro lipogenesis, rate of [C14]-glucose incorporation into [C14]-lipid: KRB buffer; for activity according to the in vivo and in vitro assay results (in words): structure-activity summary
Procedure: The rate of the incorporation of exogenous [C^14]-glucose into total lipid in adipose tissue was measured as the index of anti-lipogenic activity of hGH 177-191.
Adipose tissues were sliced into segments of approximately 200 mg each and then placed in Krebs-Ringer bicarbonate (KRB) buffer (pH 7.4) containing 2% defatted BSA, and glucose (0.1 mg/ml) and gassed with 95% O2-5% CO2 at 37° C. After 1 hr preincubation, the tissues were transferred to another 2 ml of fresh media containing [C^14]-glucose (final specific activity 0.05 μCi/μmol), and 0.3 μM of hGH 177-191 in the presence or absence of insulin (0.1 mU/ml) for a further 90 min incubation (conditions as above). Then the tissues were removed, washed thoroughly with KRB buffer and lipid was extracted with 5 ml of chlorofom/methanol (2:1, v/v) The extraction solution was washed with 2 ml of MeOH-H2O solution containing 0.1% MgCl2. A 2.5 ml aliquot of the washed extraction solution was taken and transferred to scintillation vials. The [C^14] radioactivity was measured with a liquid scintillation counter. The rates of total lipid synthesis were expressed as μmol [C^14]-glucose incorporated into lipid/g tissue/hr.

Row | Substance | In vitro lipogenesis % of control | In vitro lipogenesis Activity | In vitro lipogenesis, rate of [C14]-glucose incorporation into [C14]-lipid [nmol/g tissue/hr] | activity according to the in vivo and in vitro assay results (in words)
1 | 9401 (LRIVQCRSVEGSCGF; listed as Homo sapiens) [Compound 9401] | 75 % of control | Active | 161 ± 10 | 
2 | 9402 (LRIVQC(Acm)RSVEGSCGF; not fully specified (residue 13); listed as Homo sapiens) [Compound 9402] | 91 % of control | Inactive | 222 ± 9 | 
3 | 9402 (LRIVQC(Acm)RSVEGSCGF; not fully specified (residue 13); listed as Homo sapiens) [compound 9402] |  |  |  | inactive
4 | 9403 (LRKVQCRSVEGSCGF; disulfide 6-13; listed as Homo sapiens) [Compound 9403] | 69 % of control | Active | 167 ± 28 | 
5 | 9404 (LRIVQCRSVEGSCGF-NH2; disulfide 6-13; N-terminus assumed; SMILES CC[C@H](C)[C@H](NC(=O)[C@H](CCCNC(=N)N)NC(=O)[C@@H](N)CC(C)C)C(=O)N[C@H](C(=O)N[C@@H](CCC(N)=O)C(=O)N[C@H]1CSSC[C@@H](C(=O)NCC(=O)N[C@@H](Cc2ccccc2)C(N)=O)NC(=O)[C@H](CO)NC(=O)CNC(=O)[C@H](CCC(=O)O)NC(=O)[C@H](C(C)C)NC(=O)[C@H](CO)NC(=O)[C@H](CCCNC(=N)N)NC1=O)C(C)C; listed as Homo sapiens) [Compound 9404] | 77 % of control | Active | 187 ± 18 | 
6 | 9405 (Ac-LRIVQCRSVEGSCGF; disulfide 6-13; listed as Homo sapiens) [Compound 9405] | 68 % of control | Active | 164 ± 17 | 
7 | 9406 (LRIVQCASVEGSCGF; listed as Homo sapiens) [Compound 9406] | 97 % of control | Inactive | 236 ± 17 | 
8 | 9407 (LRIVQCKSVEGSCGF; disulfide 6-13; listed as Homo sapiens) [Compound 9407] | 71 % of control | Active | 174 ± 16 | 
9 | 9408 (LRIVQCKSVEGSCGF; lactam 7-10; disulfide 6-13; listed as Homo sapiens) [compound 9408] |  |  |  | retains activity
10 | 9410 (H-LRIVQCRSVEGSCGF; disulfide 6-13; also: desamino N-terminus; listed as Homo sapiens) [Compound 9410] | 59 % of control | Active | 143 ± 20 | 
11 | 9501 (LRIVQCRSVE[dA]SC[dA]F; disulfide 6-13; listed as Homo sapiens) [Compound 9501] | 76 % of control | Active | 185 ± 6 | 
12 | 9501 (LRIVQCRSVE[dA]SC[dA]F; disulfide 6-13; listed as Homo sapiens) [compound 9501] |  |  |  | activity being retained
13 | 9502 (LRIVQ[Pen]RSVEGS[Pen]GF; disulfide 6-13; listed as Homo sapiens) [Compound 9502] | 72 % of control | Active | 174 ± 5 | 
